The numbers were not newly measured in paper PMC8541353, “A Novel Phenylpyrrolidine Derivative: Synthesis and Effect on Cognitive Functions in Rats with Experimental Ishemic Stroke” (Molecules, 2021), which cites them from elsewhere.

The conditions of the series: cited from earlier work.

`NC(=O)CN1CC(O)CC1=O` (centres unmarked) [Oxiracetam]: the “Literature Report of BBB Permeability” value is “Low [20]”.
With `CC[C@@H](C(N)=O)N1C[C@H](C=C(F)F)CC1=O` [Seletracetam], the “Literature Report of BBB Permeability” value is “Very good [19]”.
